In patent US20030203915A1, “Nitric oxide donors, compositions and methods of use related applications” (priority 2002, published 2003):
Counter-ions that a name gives are not always drawn.

Test system: human coronary artery smooth muscle cells (CASMC)
Experiment: Vascular Smooth Muscle Cell (SMC) Antiproliferation Assay
Format: cell-based
Settings: CASMC; viable cell count (Trypan Blue) ~68 hr after compound addition; nitrosylated (nitrosothiol) compound; read-out: IC 50 μM, Nitrosylated Compound (inhibition of proliferation of vascular smooth muscle cells)
Method: The cells used in this assay were-human coronary artery smooth-muscle cells (CASMC) supplied by Clonetics Corp. (San Diego, Calif.).
Stock solutions of the test compounds were prepared just prior to addition to the cells by dissolving in ethanol at a concentration of 1000 times the highest concentration to be assayed. This stock solution was diluted, as required, with ethanol to lower concentrations. […] Control cultures received 2 μL of ethanol per well (n=4). On the following morning, the cultures were examined microscopically and their condition recorded. On the third day after test compound addition (˜68 hr), the cultures were examined microscopically again and the viable cells counted with an hemacytometer following trypsinization with 0.25% trypsin-1 mM EDTA. Trypan Blue dye exclusion was used to discriminate between viable and dead cells.

Structure (SMILES) | IC50 [µM]
O=NSC1(CC(=O)NCCO)C2CC3CC(C2)CC1C3 (stereo not shown) [Example 34d, N-(2-Hydroxyethyl)-2-(2-(nitrosthio)adamantan-2-yl)acetamide] | 23
C[N+](C)(C)CCNC(=O)CC1(SN=O)C2CC3CC(C2)CC1C3 (stereo not shown) [Example 44c, 2-(2-(Nitrosothio)adamantan-2-yl)-N-(2-(trimethylammonium)ethyl)-acetamide chloride] | 33.5
COP(=O)(CC(SN=O)(C1CC1)C1CC1)OC [Example 47b, Dimethyl (2,2-dicyclopropyl-2-(nitrosothio)ethyl)phosphonate] | 41
CC1(SN=O)CN2CCC1CC2 (stereo not shown) [Example 36c, (3-Methylquinudidin-3-yl)nitrosothio hydrochlroide] | 22
C[N+](C)(CCNC(=O)CC1(SN=O)C2CC3CC(C2)CC1C3)Cc1ccccc1 (stereo not shown) [Example 43c, N-(2-(Dimethylbenzylammonium)ethyl)-2-(2-(nitrosothio)adamantan-2-yl)acetamide chloride] | 27
CC1(SN=O)C2CC3CC(C2)CC1C3 (stereo not shown) [Example 25c, (2-Methyladamantan-2-yl)nitrosothio] | 33
O=NSC1(CO)CCN(C(=O)OCc2ccccc2)CC1 [Example 26e, Phenylmethyl 4-(hydroxymethyl)-4-(nitrosothio)piperidinecarboxylate] | 33

Same assay, conditions: CASMC; viable cell count (Trypan Blue) ~68 hr after compound addition; non-nitrosylated (sulfhydryl) compound

Structure (SMILES) | IC 50 μM, Non-nitrosylated Compound (inhibition of proliferation of vascular smooth muscle cells)
CC(C)(S)CN [Example 18a, 2-Mercapto-2-methyl-1-propylamine] | slight inhibition
O=C(CC1(S)C2CC3CC(C2)CC1C3)NCCO (stereo not shown) [Example 34c, N-(2-Hydroxyethyl)-2-(2-sulfanyladamantan-2-yl)acetamide] | no inhibition
C[N+](C)(CCNC(=O)CC1(S)C2CC3CC(C2)CC1C3)Cc1ccccc1.[Cl-] (stereo not shown) [Example 43b, N-(2-(Dimethylbenzylammonium)ethyl)-2-(2-sulfanyladamantan-2-yl)acetamide chloride] | no inhibition
COP(=O)(CC(S)(C1CC1)C1CC1)OC [Example 47a, Dimethyl (2,2-dicyclopropyl-2-mercaptoethyl)phosphonate] | slight inhibition
CC(C)(S)CN1C(=O)NC(=O)C1=O [Example 21b, 1-(2-Methyl-2-sulfanylpropyl)imidazolidine-2,4,5-trione] | no inhibition
NC(=O)CC1(S)C2CC3CC(C2)CC1C3 (stereo not shown) [Example 12c, 2-(2-Sulfanyladamantan-2-yl)acetamide] | slight inhibition
CC(C)(S)CNC(=O)NCC(C)(C)S [Example 20c, N-(2-Methyl-2-sulfanylpropyl)((2-methyl-2-sulfanylpropyl)amino)carboxade] | slight inhibition
SC1(C2OCCO2)CCCCC1 [Example 45a, 2(1-Mercaptocyclohex-1-yl)-1,3-dioxolane] | slight inhibition
CC1(S)CN2CCC1CC2.Cl (stereo not shown) [Example 36b, 3-Methylquinudidine-3-thiol hydrochloride] | no inhibition
O=C(OCc1ccccc1)N1CCC(S)(CO)CC1 [Example 26d, Phenylmethyl 4-(hydroxymethyl)-4-sulfanylpiperidinecarboxylate] | no inhibition
C[N+](C)(C)CCNC(=O)CC1(S)C2CC3CC(C2)CC1C3.[Cl-] (stereo not shown) [Example 44b, 2-(2—Sulfanyladamantan-2-yl)-N-(2(trimethylammonium)ethyl)acetamide chloride] | no inhibition
SC1(C2OCCCO2)CCCCC1 [Example 46a, 2-(1-Mercaptocyclohex-1-yl)-1,3-dioxane] | no inhibition

Same assay, conditions: CASMC; viable cell count (Trypan Blue) ~68 hr after compound addition; non-nitrosylated (sulfhydryl) compound; read-out: IC 50 μM, Non-nitrosylated Compound (inhibition of proliferation of vascular smooth muscle cells)

Structure (SMILES) | IC50 [µM]
CC(C)(S)CNC(=O)C(C)(C)CCC(=O)O [Example 27a] | 78
CC(C)(S)CN1C(=O)C2C3C=CC(C3)C2C1=O (stereo not shown) [Example 11a, 4-Aza-4-(2-methyl-2-sulfanylpropy)tricyclo(5.2.1.0<2,6>)dec-8-ene-3,5-dione] | 80

Same assay, conditions: Homo sapiens, 68 h, read-out: IC 50 μM, Nitrosylated Compound (inhibition of proliferation of vascular smooth muscle cells)

Structure (SMILES) | IC50 [µM]
O=NSC1(CC(=O)OCC(CO[N+](=O)[O-])(CO[N+](=O)[O-])CO[N+](=O)[O-])C2CC3CC(C2)CC1C3 (stereo not shown) [Example 37, 2,2-Bis((nitrooxy)methyl)-3-(nitrooxy)propyl 2-(2-(nitrosothio)adamantan-2-yl)acetate] | 5

Same assay, conditions: Homo sapiens; CASMC; viable cell count (Trypan Blue) ~68 hr after compound addition; nitrosylated (nitrosothiol) compound; read-out: IC 50 μM, Nitrosylated Compound (inhibition of proliferation of vascular smooth muscle cells)

Structure (SMILES) | IC50 [µM]
CC(C)(CNC(=O)C(C)(C)CO[N+](=O)[O-])SN=O [Example 38b, 2,2-Dimethyl-N-(2-methyl-2-(nitrosothio)propyl)-3-(nitrooxy)propanamide] | 50
CC(C)(CN1C(=O)NC(=O)C1=O)SN=O [Example 21c, 1-(2-Methyl-2-(nitrosothio)propyl)imidazolidine-2,4,5-trione] | 12
CC(C)(CNC(=O)NCC(C)(C)SN=O)SN=O [Example 20d, N-(2-Methyl-2-(nitrosothio)propyl)((2-methyl-2-(nitrosothio)propyl)amino)carboxamide] | 28
CC(C)(CNC(=O)C(C)(C)CCC(=O)O)SN=O [Example 27b, 4-Methyl-4-(N-(2-methyl-2-(nitrosothio)propyl)carbamoyl)pentanoic acid] | 34
CC(C)(CN)SN=O [Example 38a, 2-Methyl-2-(nitrosothio)propylamine hydrochloride] | 40 to 60
CC(C)(CN1C(=O)C2C3C=CC(C3)C2C1=O)SN=O (stereo not shown) [Example 11b, 4-Aza-4-(2-methyl-2-(nitrosothio)propyl)tricyclo(5.2.1.0<2,6>)dec-8-ene-3,5-dione] | 16
NC(=O)CC1(SN=O)C2CC3CC(C2)CC1C3 (stereo not shown) [Example 12d, 2-(2-(Nitrosothio)adamantan-2-yl)acetamide] | 12
O=NSC1(C2OCCO2)CCCCC1 [Example 45b, 2(1-Nitrosomercaptocyclohex-1-yl)-1,3-dioxolane] | 42
CSc1nccc(NCC(C)(C)S)n1 [Example 18b, 2-Methyl-1-((2-methylthiopyrimidin-4-yl)amino)propane-2-thiol] | 26
CC(C)(C)OC(=O)CC1(SN=O)C2CC3CC(C2)CC1C3 (stereo not shown) [Example 29, tert-Butyl 2-(2-(nitrosothio)adamantan-2-yl)acetate] | 11
O=NSC1(C2OCCCO2)CCCCC1 [Example 46b, 2-(1-Nitrosomercaptocyclohex-1-yl)-1,3-dioxane] | 47
CC(C)(CNC(=O)CCCC(=O)O)SN=O [Example 19b, 4-(N-(2-Methyl-2-(nitrosothio)propyl)carbamoyl)butanoic acid] | 50

Same assay, conditions: Homo sapiens; CASMC; viable cell count (Trypan Blue) ~68 hr after compound addition; non-nitrosylated (sulfhydryl) compound; read-out: IC 50 μM, Non-nitrosylated Compound (inhibition of proliferation of vascular smooth muscle cells)

Structure (SMILES) | IC50 [µM]
CC(C)(C)OC(=O)CC1(S)C2CC3CC(C2)CC1C3 (stereo not shown) [Example 12a, tert-Butyl-2-(2-sulfanyladamant-2-yl)acetate] | 25
CC(C)(S)CNC(=O)CCCC(=O)O [Example 19a, 4-(N-(2-Methyl-2-sulfanylpropyl)carbamoyl)butanoic acid] | > 200
CC1(S)C2CC3CC(C2)CC1C3 (stereo not shown) [Example 25b, 2-Methyladamantane-2-thiol] | 65

Test system: not given
Experiment: not given
Settings: not given

Structure (SMILES) | melting point [°C]
CC1(C)c2ccccc2C(C)(C)C1(CC#N)SN=O [Example 4, 2-(1,1,3,3-Tetramethyl-2-(nitrosothio)indan-2-yl)ethanenitrile] | 67 to 69
CC(C)(CN1C(=O)NC(=O)C1=O)SN=O [Example 21c, 1-(2-Methyl-2-(nitrosothio)propyl)imidazolidine-2,4,5-trione] | 80 to 82
COc1ccc(C(=O)OCCC2(SN=O)C3CC4CC(C3)CC2C4)cc1 (stereo not shown) [Example 31, 2-(2-(Nitrosothio)adamantan-2-yl)ethyl 4-methoxybenzoate] | 100 to 101
CC12CCC(C1)C(C)(C)C2(CCO)SN=O (stereo not shown) [Example 7, 2-(1,3,3-Trimethyl-2-(nitrosothio)bicyclo(2.2.1)hept-2-yl)ethan-1-ol] | 81 to 85
CSc1nccc(NCC(C)(C)SN=O)n1 [Example 18c, (2-Methyl-2-(nitrosothio)propyl)(2-methylthiopyrimidin-4-yl)amine] | 77 to 79
CC(C)(CNC(=O)C(C)(C)CCC(=O)O)SN=O [Example 27b, 4-Methyl-4-(N-(2-methyl-2-(nitrosothio)propyl)carbamoyl)pentanoic acid] | 93 to 96
CC(C)(CNC(=O)CSCC(=O)O)SN=O [Example 5, 2-((N-(2-Methyl-2-(nitrosothio)propyl)carbamoyl)methylthio)acetic acid] | 47 to 51
O=NSC1(C2OCCO2)CCCCC1 [Example 45b, 2(1-Nitrosomercaptocyclohex-1-yl)-1,3-dioxolane] | 37 to 39
CC(C)(C)OC(=O)CC1(SN=O)C2CC3CC(C2)CC1C3 (stereo not shown) [Example 29, tert-Butyl 2-(2-(nitrosothio)adamantan-2-yl)acetate] | 85 to 87
O=NSC1(C2OCCCO2)CCCCC1 [Example 46b, 2-(1-Nitrosomercaptocyclohex-1-yl)-1,3-dioxane] | 34 to 36
CC(C)(C)C(CC#N)(SN=O)C(C)(C)C [Example 15, 3-(tert-Butyl)-4,4-dimethyl-3-(nitrosothio)pentanenitrile] | 92 to 93
CC(C)(CNC(=O)CCCC(=O)O)SN=O [Example 19b, 4-(N-(2-Methyl-2-(nitrosothio)propyl)carbamoyl)butanoic acid] | 104 to 107
